Our source for the relative viability values is the supplement of paper PMC10307832.

Common to all, as to assay: relative viability (nuclei count vs DMSO), 5 days (fraction); higher = more cells survive
Compound in experiment [1]: C1/C(=C\C2=CC=CS2)/C(=O)/C(=C/C3=CC=CS3)/C1 + CS(=O)(=O)N1CCN(Cc2cc3nc(-c4cccc5[nH]ncc45)nc(N4CCOCC4)c3s2)CC1 [Pictilisib] (partner 1 µM)
In a few lines:
(§1)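 Relative viability equals treated-well nuclei counts divided by vehicle-well nuclei counts. Counts came from 4× images of lung cancer cell lines grown in 1536-well plates for 5 days after pin-tool dosing on the day after seeding. Dosing used one drug alone or a fixed anchor-drug dose plus five library-drug doses (not always all listed) in √10 steps, and values are medians of duplicate plates.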

Compound in experiment [2]: C[C@]12O[C@H](C[C@]1(O)CO)n1c3ccccc3c3c4c(c5c6ccccc6n2c5c31)CNC4=O [Lestaurtinib] + CC(=O)Nc1cccc(-n2c(=O)n(C3CC3)c(=O)c3c(Nc4ccc(I)cc4F)n(C)c(=O)c(C)c32)c1 [Trametinib] (partner 0.02 µM)
Summed up:
as §1

Compound in experiment [3]: C[C@]12O[C@H](C[C@]1(O)CO)n1c3ccccc3c3c4c(c5c6ccccc6n2c5c31)CNC4=O [Lestaurtinib] + CC(=O)c1c(C)c2cnc(Nc3ccc(N4CCNCC4)cn3)nc2n(C2CCCC2)c1=O [Palbociclib] (partner 0.5 µM)
In a few lines:
as §1

Compound in experiment [4]: C[C@]12O[C@H](C[C@]1(O)CO)n1c3ccccc3c3c4c(c5c6ccccc6n2c5c31)CNC4=O [Lestaurtinib] + NC(=O)Nc1cc(-c2cccc(F)c2)sc1C(=O)N[C@H]1CCCNC1 [AZD7762] (partner 0.2 µM)
Summed up: as §1

Take NCI-H358: the relative viability in experiment [1] (first compound 0.2 µM) came out at 0.37; in experiment [1] (first compound 0.6325 µM) it was 0.312; in experiment [1] (first compound 2 µM) it was 0.412; in experiment [1] (first compound 6.325 µM), 0.182; in experiment [1] (first compound 20 µM), 0.453; in experiment [2] (first compound 0.005 µM) it was 0.139. Moreover, the relative viability in experiment [2] (first compound 0.01581 µM) stood at 0.119; in experiment [2] (first compound 0.05 µM), 0.157; in experiment [2] (first compound 0.1581 µM), 0.103; in experiment [2] (first compound 0.5 µM) it was 0.0891; in experiment [3] (first compound 0.005 µM), 0.132; in experiment [3] (first compound 0.01581 µM), 0.131. Besides, the relative viability worked out at 0.14 in experiment [3] (first compound 0.05 µM); 0.111 in experiment [3] (first compound 0.1581 µM); 0.108 in experiment [3] (first compound 0.5 µM); 0.485 in experiment [4] (first compound 0.005 µM); 0.413 in experiment [4] (first compound 0.01581 µM); 0.432 in experiment [4] (first compound 0.05 µM). Besides, the relative viability was 0.298 in experiment [4] (first compound 0.1581 µM) and 0.253 in experiment [4] (first compound 0.5 µM).
Take NCI-H441: the relative viability was found to be 0.523 in experiment [1] (first compound 0.2 µM); 0.418 in experiment [1] (first compound 0.6325 µM); 0.541 in experiment [1] (first compound 2 µM); 0.489 in experiment [1] (first compound 6.325 µM); 0.523 in experiment [1] (first compound 20 µM); 0.458 in experiment [2] (first compound 0.005 µM). Further, the relative viability is 0.441 in experiment [2] (first compound 0.01581 µM); 0.346 in experiment [2] (first compound 0.05 µM); 0.389 in experiment [2] (first compound 0.1581 µM); 0.34 in experiment [2] (first compound 0.5 µM); 0.192 in experiment [3] (first compound 0.005 µM); 0.238 in experiment [3] (first compound 0.01581 µM). The relative viability was found to be 0.225 in experiment [3] (first compound 0.05 µM); 0.199 in experiment [3] (first compound 0.1581 µM); 0.207 in experiment [3] (first compound 0.5 µM); 1.17 in experiment [4] (first compound 0.005 µM); 1.39 in experiment [4] (first compound 0.01581 µM); 1.04 in experiment [4] (first compound 0.05 µM). For the same cell line, the values for the relative viability in experiment [4] (first compound 0.1581 µM) and in experiment [4] (first compound 0.5 µM) were 1.01 and 0.743, respectively.
Consider NCI-H460, for which the relative viability turned out to be 0.365 in experiment [1] (first compound 0.2 µM); 0.279 in experiment [1] (first compound 0.6325 µM); 0.453 in experiment [1] (first compound 2 µM); 0.303 in experiment [1] (first compound 6.325 µM); 0.346 in experiment [1] (first compound 20 µM); 0.237 in experiment [2] (first compound 0.005 µM). Besides, the relative viability was 0.201 in experiment [2] (first compound 0.01581 µM); 0.144 in experiment [2] (first compound 0.05 µM); 0.142 in experiment [2] (first compound 0.1581 µM); 0.0705 in experiment [2] (first compound 0.5 µM); 0.151 in experiment [3] (first compound 0.005 µM); 0.231 in experiment [3] (first compound 0.01581 µM). Besides, the relative viability in experiment [3] (first compound 0.05 µM) was 0.112; in experiment [3] (first compound 0.1581 µM), 0.116; in experiment [3] (first compound 0.5 µM), 0.116; in experiment [4] (first compound 0.005 µM) it was 0.651; in experiment [4] (first compound 0.01581 µM) it was 0.765; in experiment [4] (first compound 0.05 µM), 0.757. In addition, the relative viability in experiment [4] (first compound 0.1581 µM) came to 1.31; in experiment [4] (first compound 0.5 µM), 0.645.
On to NCI-H647, for which the relative viability stood at 0.439 in experiment [1] (first compound 0.2 µM); 0.329 in experiment [1] (first compound 0.6325 µM); 0.563 in experiment [1] (first compound 2 µM); 0.382 in experiment [1] (first compound 6.325 µM); 0.379 in experiment [1] (first compound 20 µM); 0.478 in experiment [2] (first compound 0.005 µM). Also, the relative viability in experiment [2] (first compound 0.01581 µM) came out at 0.41; in experiment [2] (first compound 0.05 µM), 0.22; in experiment [2] (first compound 0.1581 µM), 0.29; in experiment [2] (first compound 0.5 µM), 0.169; in experiment [3] (first compound 0.005 µM), 0.382; in experiment [3] (first compound 0.01581 µM), 0.201. Also, the relative viability in experiment [3] (first compound 0.05 µM) worked out at 0.227; in experiment [3] (first compound 0.1581 µM), 0.247; in experiment [3] (first compound 0.5 µM), 0.164; in experiment [4] (first compound 0.005 µM) it was 0.307; in experiment [4] (first compound 0.01581 µM), 0.756; in experiment [4] (first compound 0.05 µM) it was 0.275. For the same cell line, the relative viability in experiment [4] (first compound 0.1581 µM) is 0.165; in experiment [4] (first compound 0.5 µM) it was 0.0697.
